Experimental data as given in the supplement of paper PMC11208160.

Assay: recombinant UMI read abundance after kanamycin selection (control-corrected) (log10(CPM+1)); higher = more efficient recombination; extreme values may be limits of the assay; sequences stand for … in AGTGCAGAGAAAATCGGCCAGTTTTCTCTGCCTGCAGTCCGCATGCCGTGGGACCCCTTGGGTTCTAACCTGTTGCCTAGATTTATGCAGCGGACTGCCTTTCTCCCAAAGTGATAAACCGG…AGGTTGGTTTCACT; site = the 11-nt donor
Summary of the method: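 Sequencing read counts were converted to CPM, averaged over two replicates and scaled by control-derived factors. Results are given as log10(CPM+1). The reads covered the donor–target junction of recombinant UMIs from a pooled Escherichia coli screen of donor and donor-binding-loop pairs for the IS621 bridge recombinase.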
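Note: IS621 bridge recombinase in Escherichia coli cells against a fixed T5 target plasmid.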

Sequence	recombinant UMI read abundance (log10)
CGGAATCCATGGACCGGTTTTCCCGGTAATCCGTATTTGCT (site CGGAATCCTAC)	0
CGGAATCCATGGACCGGTTTTCCCGGTAATCCGTATTTGCT (site CGGAATCCTAG)	2.08
CGGAATCCATGGACCGGTTTTCCCGGTAATCCGTATTTGCT (site CGGAATCCTAT)	0.767
CGGAATCCATGGACCGGTTTTCCCGGTAATCCGTATTTGTC (site CGGAATCCTAA)	0
CGGAATCCATGGACCGGTTTTCCCGGTAATCCGTATTTGTC (site CGGAATCCTCA)	0.00507
CGGAATCCATGGACCGGTTTTCCCGGTAATCCGTATTTGTC (site CGGAATCCTGA)	2.06
CGGAATCCATGGACCGGTTTTCCCGGTAATCCGTATTTGTC (site CGGAATCCTTA)	0
CGGAATGCATGGACCGGTTTTCCCGGTAATCCGTATTTGTT (site CGGAATACTAA)	2
CGGAATGCATGGACCGGTTTTCCCGGTAATCCGTATTTGTT (site CGGAATCCTAA)	0.00325
CGGAATGCATGGACCGGTTTTCCCGGTAATCCGTATTTGTT (site CGGAATGCTAA)	2.84
CGGAATGCATGGACCGGTTTTCCCGGTAATCCGTATTTGTT (site CGGAATTCTAA)	0
CGGACACCATGGACCGGTTTTCCCGGTAATCCGTATTTGCT (site CGGACAACTAG)	0
CGGACACCATGGACCGGTTTTCCCGGTAATCCGTATTTGCT (site CGGACACCTAG)	0
CGGACACCATGGACCGGTTTTCCCGGTAATCCGTATTTGCT (site CGGACAGCTAG)	0.00902
CGGACACCATGGACCGGTTTTCCCGGTAATCCGTATTTGCT (site CGGACATCTAG)	0
CGGACAGCATGGACCGGTTTTCCCGGTAATCCGTATTTGCT (site CGGACAACTAG)	0.393
CGGACAGCATGGACCGGTTTTCCCGGTAATCCGTATTTGCT (site CGGACACCTAG)	0
CGGACAGCATGGACCGGTTTTCCCGGTAATCCGTATTTGCT (site CGGACAGCTAG)	2.07
CGGACAGCATGGACCGGTTTTCCCGGTAATCCGTATTTGCT (site CGGACATCTAG)	0
CGGACATCATGGACCGGTTTTCCCGGTAATCCGTATTTGTT (site CGGACATCTAA)	2.07
CGGACATCATGGACCGGTTTTCCCGGTAATCCGTATTTGTT (site CGGACATCTAC)	0.00517
CGGACATCATGGACCGGTTTTCCCGGTAATCCGTATTTGTT (site CGGACATCTAG)	0
CGGACATCATGGACCGGTTTTCCCGGTAATCCGTATTTGTT (site CGGACATCTAT)	0
CGGACTCCATGGACCGGTTTTCCCGGTAATCCGTATTTGTG (site CGGAATCCTAA)	0.00428
CGGACTCCATGGACCGGTTTTCCCGGTAATCCGTATTTGTG (site CGGACTCCTCA)	0.0192

Sequence	recombinant UMI read abundance (log10)
CGGAGATCATGGACCGGTTTTCCCGGTAATCCGTATTTGCT (site CGGAAATCTAG)	1.27
CGGAGATCATGGACCGGTTTTCCCGGTAATCCGTATTTGCT (site CGGACATCTAG)	0
CGGAGATCATGGACCGGTTTTCCCGGTAATCCGTATTTGCT (site CGGAGATCTAG)	3.03
CGGAGATCATGGACCGGTTTTCCCGGTAATCCGTATTTGCT (site CGGATATCTAG)	0
CGGAGGACATGGACCGGTTTTCCCGGTAATCCGTATTTGCC (site CGGAGGACTGG)	2.76
CGGAGTCCATGGACCGGTTTTCCCGGTAATCCGTATTTGTC (site CGGAATCCTAA)	0
CGGAGTCCATGGACCGGTTTTCCCGGTAATCCGTATTTGTC (site CGGAGTCCTGA)	1.34
CGGATGACATGGACCGGTTTTCCCGGTAATCCGTATTTGAT (site CGGATGACTAT)	2.14
CGGATTCCATGGACCGGTTTTCCCGGTAATCCGTATTTGTA (site CGGAATCCTAA)	0.0133
CGGATTCCATGGACCGGTTTTCCCGGTAATCCGTATTTGTA (site CGGATTCCTTA)	0
CGGATTTCATGGACCGGTTTTCCCGGTAATCCGTATTTGTT (site CGGAATCCTAA)	0
CGGATTTCATGGACCGGTTTTCCCGGTAATCCGTATTTGTT (site CGGATTTCTAA)	0.891
CGGCAACCATGGACCGGTTTTCCCGGTAATCCGTATTTGAT (site CGGAAACCTAT)	0
CGGCAACCATGGACCGGTTTTCCCGGTAATCCGTATTTGAT (site CGGCAACCTAT)	0
CGGCAACCATGGACCGGTTTTCCCGGTAATCCGTATTTGAT (site CGGGAACCTAT)	0
CGGCAACCATGGACCGGTTTTCCCGGTAATCCGTATTTGAT (site CGGTAACCTAT)	0
CGGCACCCATGGACCGGTTTTCCCGGTAATCCGTATTTGTT (site CGGAATCCTAA)	0.00519
CGGCACCCATGGACCGGTTTTCCCGGTAATCCGTATTTGTT (site CGGCACCCTAA)	0.393
CGGCATCCATGGACCGGTTTTCCCGGTAATCCGTATTTGTC (site CGGCATCCTGA)	0
CGGCATGCATGGACCGGTTTTCCCGGTAATCCGTATTTGTT (site CGGAATCCTAA)	0.00719
CGGCATGCATGGACCGGTTTTCCCGGTAATCCGTATTTGTT (site CGGCATGCTAA)	2.31
CGGCCGTCATGGACCGGTTTTCCCGGTAATCCGTATTTGAT (site CGGCCGTCTAT)	0.968
CGGCGGCCATGGACCGGTTTTCCCGGTAATCCGTATTTGTC (site CGGCGGCCTGA)	0.965
CGGCTGCCATGGACCGGTTTTCCCGGTAATCCGTATTTGCA (site CGGCTGCCTTG)	1.18
CGGCTGGCATGGACCGGTTTTCCCGGTAATCCGTATTTGGT (site CGGCTGGCTAC)	1.17

Sequence	recombinant UMI read abundance (log10)
CGGGAACCATGGACCGGTTTTCCCGGTAATCCGTATTTGAA (site CGGGAACCTAT)	0
CGGGAACCATGGACCGGTTTTCCCGGTAATCCGTATTTGAA (site CGGGAACCTCT)	0.00576
CGGGAACCATGGACCGGTTTTCCCGGTAATCCGTATTTGAA (site CGGGAACCTGT)	0
CGGGAACCATGGACCGGTTTTCCCGGTAATCCGTATTTGAA (site CGGGAACCTTT)	0
CGGGAGCCATGGACCGGTTTTCCCGGTAATCCGTATTTGCT (site CGGGAGCCTAG)	0.17
CGGGAGGCATGGACCGGTTTTCCCGGTAATCCGTATTTGCC (site CGGGAGACTGG)	0
CGGGAGGCATGGACCGGTTTTCCCGGTAATCCGTATTTGCC (site CGGGAGCCTGG)	0
CGGGAGGCATGGACCGGTTTTCCCGGTAATCCGTATTTGCC (site CGGGAGGCTGG)	0.183
CGGGAGGCATGGACCGGTTTTCCCGGTAATCCGTATTTGCC (site CGGGAGTCTGG)	0
CGGGAGTCATGGACCGGTTTTCCCGGTAATCCGTATTTGAC (site CGGGAGTCTGA)	2.28
CGGGAGTCATGGACCGGTTTTCCCGGTAATCCGTATTTGAC (site CGGGAGTCTGC)	1.66
CGGGAGTCATGGACCGGTTTTCCCGGTAATCCGTATTTGAC (site CGGGAGTCTGG)	1.25
CGGGAGTCATGGACCGGTTTTCCCGGTAATCCGTATTTGAC (site CGGGAGTCTGT)	0.147
CGGGAGTCATGGACCGGTTTTCCCGGTAATCCGTATTTGGT (site CGGGAGTCTAC)	2.11
CGGGATCCATGGACCGGTTTTCCCGGTAATCCGTATTTGTA (site CGGAATCCTAA)	0
CGGGATCCATGGACCGGTTTTCCCGGTAATCCGTATTTGTA (site CGGGATCCTTA)	1.69
CGGGATTCATGGACCGGTTTTCCCGGTAATCCGTATTTGCC (site CGGGAATCTGG)	0.816
CGGGATTCATGGACCGGTTTTCCCGGTAATCCGTATTTGCC (site CGGGACTCTGG)	2.97
CGGGATTCATGGACCGGTTTTCCCGGTAATCCGTATTTGCC (site CGGGAGTCTGG)	1.18
CGGGATTCATGGACCGGTTTTCCCGGTAATCCGTATTTGCC (site CGGGATTCTGG)	2.58
CGGGATTCATGGACCGGTTTTCCCGGTAATCCGTATTTGTT (site CGGAATCCTAA)	0
CGGGATTCATGGACCGGTTTTCCCGGTAATCCGTATTTGTT (site CGGGATTCTAA)	2.91
CGGGGTACATGGACCGGTTTTCCCGGTAATCCGTATTTGTA (site CGGGGTACTTA)	2.49
CGGGGTGCATGGACCGGTTTTCCCGGTAATCCGTATTTGGT (site CGGGGTGCTAC)	1.25
CGGGTCACATGGACCGGTTTTCCCGGTAATCCGTATTTGTC (site CGGGTCACTGA)	3.01
